Paper PMC11154709, “4S-fluorination of ProB29 in insulin lispro slows fibril formation” (The Journal of Biological Chemistry, 2024)

What was measured:
diabetic mice = experiment: Reduction of blood glucose in diabetic mice; type: in vivo; conditions: 5 to 10% of the standard injection (3.5 and 1.75 mg kg-1 as printed in SI), commercial Humalog, subcutaneous, STZ-diabetic male NODscid mice 15-18 week old; mean ± SD of 4 biological replicates (Fig. S2)
Description: To verify bioactivity, lispro variants were injected subcutaneously into diabetic mice, and blood glucose was monitored over 2.5 h. Mouse models allow determination of activity but not time to onset of action ([27]). […] As expected, all lispro variants retained activity (Fig. 2A).
Figure 2 Biological activity and CD spectroscopy of lispro variants.A, lispros were injected subcutaneously into diabetic mice, and blood glucose was measured over time after injection. The data presented here represent the mean ± SD of 3 to 6 biological replicates. B–E, far-UV circular dichroism spectra (60 μM lispro in […] phosphate buffer, pH 8.0). […] 4R-F, 4R-fluoroproline; 4S-F, 4S-fluoroproline.
Experiments were conducted according to procedures approved by the Institutional Animal Care and Use Committee at the City of Hope. Adult (8–12 week old) male NODscid mice (Jackson Laboratory; stock # 001303) were injected intraperitoneally for three consecutive days with freshly prepared streptozotocin (45 mg kg^−1 body weight, suspended in 100 mM sodium citrate buffer, pH 4.5); diabetes was confirmed by the detection of high glucose levels (200–600 mg dL^−1) as measured by a glucomonitor (Freestyle, Abbott Diabetes Care). […] Blood glucose was measured from blood sampled from the lateral tail vein. […]
into the matrix solution (α -cyanohydroxycinnamic acid in 50% ACN, 0.1% TFA) and analyzed by […]

[1] = cited from earlier work
From the text: Removal of the constrained pyrrolidine ring of proline at position B28 grants additional conformational degrees of freedom and removes hydrophobic packing interactions at the dimer interface. […] However, the standard mutagenesis approach employed in the discovery of insulin lispro ([7]) (and other FDA-app ...

In the case of “insulin lispro: fast-acting insulin with inversion of the residues ProB28 and LysB29; Humalog, Eli Lilly [reference compound]”, the “reduction of blood glucose at lower lispro doses” value (diabetic mice) is listed as “did not similarly reduce blood glucose in diabetic mice” and the “absorption” value [1] is listed as “accelerate absorption”.
